# From patent US9284543B2, “Neutral active soluble truncated PH20 polypeptides and uses thereof” (Halozyme, Inc., priority 2008, dated 2016)
# B1: VASL + PLC: full length human PH20 (SEQ ID NO: 108) with PLC treatment (protein, listed as Homo sapiens)
# chain: LNFRAPPVIPNVPFLWAWNAPSEFCLGKFDEPLDMSLFSFIGSPRINATGQGVTIFYVDRLGYYPYIDSITGVTVNGGIPQKISLQDHLDKAKKDITFYMPVDNLGMAVIDWEEWRPTWARNWKPKDVYKNRSIELVQQQNVQLSLTEATEKAKQEFEKAGKDFLVETIKLGKLLRPNHLWGYYLFPDCYNHHYKKPGYNGSCFNVEIKRNDDLSWLWNESTALYPSIYLNTQQSPVAATLYVRNRVREAIRVSKIPDAKSPLPVFAYTRIVFTDQVLKFLSQDELVYTFGETVALGASGIVIWGTLSIMRSMKSCLLLDNYMETILNPYIINVTLAAKMCSQVLCQEQGVCIRKNWNSSDYLHLNPDNFAIQLEKGGKFTVRGKPTLEDLEQFSEKFYCSCYSTLSCKEKADVKDTDAVDVCIADGVCIDAFLKPPMETEEPQIFYNASPSTLSATMFIVSILFLIISSVASL
# modifications: PLC treatment; Mature Human PH20 36-509
# B2: SPAM1-AFLK: C-terminally truncated human PH20, precursor 470 aa (SEQ ID NO:30), mature 435 aa (SEQ ID NO:82) (protein, listed as Homo sapiens)
# chain: MGVLKFKHIFFRSFVKSSGVSQIVFTFLLIPCCLTLNFRAPPVIPNVPFLWAWNAPSEFCLGKFDEPLDMSLFSFIGSPRINATGQGVTIFYVDRLGYYPYIDSITGVTVNGGIPQKISLQDHLDKAKKDITFYMPVDNLGMAVIDWEEWRPTWARNWKPKDVYKNRSIELVQQQNVQLSLTEATEKAKQEFEKAGKDFLVETIKLGKLLRPNHLWGYYLFPDCYNHHYKKPGYNGSCFNVEIKRNDDLSWLWNESTALYPSIYLNTQQSPVAATLYVRNRVREAIRVSKIPDAKSPLPVFAYTRIVFTDQVLKFLSQDELVYTFGETVALGASGIVIWGTLSIMRSMKSCLLLDNYMETILNPYIINVTLAAKMCSQVLCQEQGVCIRKNWNSSDYLHLNPDNFAIQLEKGGKFTVRGKPTLEDLEQFSEKFYCSCYSTLSCKEKADVKDTDAVDVCIADGVCIDAFLK
# modifications: HuPH20 precursor 1-470
# Tests used:
# [1] = system: HZ24-2B2 cells expressing rHuPH20; test: Treatment of rHuPH20-expressing cells with glycosylation inhibitors; assay type: cell-based, Chinese Hamster; settings: for Effect on PH20 activity (in words): tissue culture media and inside the cell
# Description: Briefly, 1×10^6 HZ24-2B2 cells expressing rHuPH20 (see Example 14 below) were seeded in 24 mL complete CD-CHO medium in two 125 mL flasks. Tunicamycin (dissolved in DMSO) or Kifunensine (freshly dissolved in water) was added to a final concentration of 5 μg/mL (containing 12 μL DMSO). As a control, one flask was seeded with 1×10^6 HZ24-2B2 cells expressing rHuPH20 and 12 μL DMSO was added as a vehicle control. Following addition of either tunicamycin or kifunensine, the cells were incubated for 4-6 hours at 37° C. with 5% CO2. Following expression, a 2 mL culture was removed and centrifuged for 5 minutes at 500 g. The supernatant was stored at 4° C. and the cell pellets were stored at −20° C. The remaining 22 mL cultures were centrifuged for 5 minutes at 500 g. The supernatant was stored at 4° C. The cells were resuspended in 22 mL complete CD-CHO medium in the original two 125 mL flasks. Tunicamycin or Kifunensine was added to the culture at a final concentration of 5 μg/mL and the cells were incubated at 37° C. with 5% CO2. Two mL (2 mL) cultures were removed from each flask at approximately every 24 hours post changing medium. For each time point, the supernatant was stored at 4° C. and the cell pellets were stored at −20° C. The expression of rHuPH20 was analyzed by Western blot analysis and the hyaluronidase activity was measured using the biotinylated HA enzymatic assay (as described in Examples 3 and 5 above).
# [2] = Microtiter hyaluronidase activity assay with biotinylated-hyaluronic acid; assay type: biochemical; settings: Table 6, 72 hour post transfection supernatant
# Description: In Example 4, the hyaluronidase activity of truncated human PH20 hyaluronidase is determined using biotinylated hyaluronic acid. The free carboxyl groups on the glucuronic acid residues of hyaluronic acid are biotinylated, and the biotinylated hyaluronic acid substrate is covalently coupled to a microtiter plate. Following incubation with hyaluronidase, the residual biotinylated hyaluronic acid substrate is detected using an avidin-peroxidase reaction, and compared to that obtained following reaction with hyaluronidase standards of known activity. […] The sensitivity permits rapid measurement of hyaluronidase activity from cultured cells and biological samples with an inter-assay variation of less than 10%.
# In this example, the human PH20 hyaluronidase carboxy-terminus deletion mutants were tested for their PH20 hyaluronidase activity using a microtiter assay with biotinylated-hyaluronic acid (biotinylated-HA or bHA). The human PH20 hyaluronidase carboxy-terminus deletion mutants were tested for hyaluronidase activity at both pH 7.4 and pH 5.5.
# In short, a 4×BH 96-well plate was coated with biotinylated-HA (1.1 MDa). The 72 hour post transfection supernatant from cells transfected with human PH20 hyaluronidase carboxy-terminus deletion mutants was diluted in buffer at either pH 7.4 or pH 5.5 and added to individual wells of the plate and allowed to incubate at 37° C. for 90 minutes. The reaction was terminated by addition of 4M guanidine HCl. The wells were washed 4× with Phosphate Buffered Saline with Tween20 (PBST) to remove any digested biotinylated-HA followed by addition of streptavidin-HRP for 1 hour at room temperature. The wells were washed 4× with PBST and the plate was developed with TMB. The plate was read at 450 nm using an ELISA plate reader. Hyaluronidase activity (in Units/mL) was determined by interpolating the measured absorbance at 450 nm with a hyaluronidase reference standard curve. Full length mature human PH20 hyaluronidase and untransfected CHO cells were used as positive and negative controls.
# CHO-S cells = test: Western blot analysis of PH20 expression in media and cells after transient expression; assay type: cell-based, Chinese Hamster; settings: media versus cells
# Description: The mutant PH20-HZ24 plasmids generated in Example 1 were transiently […] into CHO—S cells (derived from Chinese Hamster Ovary CHO K1 cells) using GeneJuice® (Novagen) according to the manufacturer's instructions. In short, the CHO—S cells were grown in CD CHO medium supplemented with L-glutamine. Prior to transfection, the CHO—S cells were plated in 6-well plates, with approximately 5×10^5 cells per well, and grown overnight at 37° C. with 5% CO2. The medium was then removed and the CHO—S cells were washed 2 times with 1 mL serum-free medium. GeneJuice® was mixed with serum-free media followed by the addition of 2 μg mutant-HZ24 DNA. After incubating at room temperature for 5-15 minutes, the GeneJuice®/DNA mixture was added dropwise to an individual well containing the washed CHO—S cells. After 4 hours, the medium was replaced with 1 mL CD-CHO medium supplemented with L-glutamine and the cells were incubated for 72 hours at 37° C. with 5% CO2. Following expression, the media and cells were harvested separately.
# The mutant PH20-HZ24 plasmids generated in Example 1 were transiently […] into CHO—S cells using GeneJuice® (Novagen) according to the manufacturer's instructions. […]
# In this example, following transient expression, as described in Example 2 above, the media and cells were harvested separately and analyzed for PH20 expression and solublility by Western blot analysis. Solubility of the C-terminus truncation mutants was determined by examining whether the expressed protein was present in the growth media or in the cells. […] Cells expressing these mutants were treated with phosphoinositol-phospholipase C (PI-PLC), which cleaves the GPI-anchor allowing the release of soluble protein into the media, and the presence of PH20 in the resulting media and cells was determined by Western blot analysis.
# Non-reduced samples were run on a 4-20% Tris-Glycine gel and transferred to PVDF membrane using iBlot (Invitrogen). For the Western blot, rabbit anti-PH20 IgG (0.5 μg/mL) was used as the primary antibody and HRP-conjugated goat anti-rabbit IgG (0.1 ng/mL, Cat#DC03L, EMD) was used as the secondary antibody. Evidence of expression is determined by a band at approximately 66 kDa, corresponding to recombinant human PH20 hyaluronidase.
molecule,measurement,setting,value
O=C1N[C@@H]2[C@@H](O)[C@@H](O)[C@H](O)[C@@H](CO)N2C1=O [Kifunensine],PH20 activity,"[1]; Cell Pellets, With Kifunensine, 0 hours",22.25 U/mL
same,PH20 activity,"[1]; Cell Pellets, With Kifunensine, 6 hours",21.25 U/mL
same,PH20 activity,"[1]; Cell Pellets, With Kifunensine, 24 hours",27.75 U/mL
same,PH20 activity,"[1]; Cell Pellets, With Kifunensine, 50 hours",43 U/mL
same,PH20 activity,"[1]; Cell Pellets, With Kifunensine, 72 hours",98.75 U/mL
same,PH20 activity,"[1]; Cell Pellets, With Kifunensine, 96 hours",208.75 U/mL
same,PH20 activity,"[1]; Cell Pellets, With Kifunensine, […]",497.25 U/mL
same,PH20 activity,"[1]; Tissue Culture Media, With Kifunensine, 0 hours",0.4 U/mL
same,PH20 activity,"[1]; Tissue Culture Media, With Kifunensine, 6 hours",23.85 U/mL
same,PH20 activity,"[1]; Tissue Culture Media, With Kifunensine, 24 hours",129.6 U/mL
same,PH20 activity,"[1]; Tissue Culture Media, With Kifunensine, 50 hours",299.7 U/mL
same,PH20 activity,"[1]; Tissue Culture Media, With Kifunensine, 72 hours",535.95 U/mL
same,PH20 activity,"[1]; Tissue Culture Media, With Kifunensine, 96 hours",945 U/mL
same,PH20 activity,"[1]; Tissue Culture Media, With Kifunensine, […]",2968.65 U/mL
same,Viable Cells,"[1]; With Kifunensine 5 μg/mL, 0 hours",1 ×10^6
same,Viable Cells,"[1]; With Kifunensine 5 μg/mL, 6 hours",1 ×10^6
same,Viable Cells,"[1]; With Kifunensine 5 μg/mL, 24 hours",1.2 ×10^6
same,Viable Cells,"[1]; With Kifunensine 5 μg/mL, 50 hours",2.1 ×10^6
same,Viable Cells,"[1]; With Kifunensine 5 μg/mL, 72 hours",3 ×10^6
same,Viable Cells,"[1]; With Kifunensine 5 μg/mL, 96 hours",3.7 ×10^6
same,Viable Cells,"[1]; With Kifunensine 5 μg/mL, […]",5.8 ×10^6
same,Effect on PH20 activity (in words),[1]; 5 μg/mL,did not affect the activity of PH20
same,Effect on expression and secretion of rHuPH20,"[1]; western blot analysis, 5 μg/mL",inhibited the expression and secretion of rHuPH20
Tunicamycin,Effect on cell viability (in words),[1]; 5 μg/mL,complete loss of cell viability
same,PH20 activity,"[1]; Cell Pellets, With Tunicamycin, 0 hours",34.50 U/mL
same,PH20 activity,"[1]; Cell Pellets, With Tunicamycin, 1 hours",38.00 U/mL
same,PH20 activity,"[1]; Cell Pellets, With Tunicamycin, 2 hours",34.00 U/mL
same,PH20 activity,"[1]; Cell Pellets, With Tunicamycin, 4 hours",18.00 U/mL
same,PH20 activity,"[1]; Cell Pellets, With Tunicamycin, 25 hours",1.00 U/mL
same,PH20 activity,"[1]; Cell Pellets, With Tunicamycin, 49 hours",0.80 U/mL
same,PH20 activity,"[1]; Cell Pellets, With Tunicamycin, 73 hours",0.30 U/mL
same,PH20 activity,"[1]; Cell Pellets, With Tunicamycin, 91 hours",0.30 U/mL
same,PH20 activity,"[1]; Tissue Culture Media, With Tunicamycin, 0 hours",0.50 U/mL
same,PH20 activity,"[1]; Tissue Culture Media, With Tunicamycin, 1 hours",2.80 U/mL
same,PH20 activity,"[1]; Tissue Culture Media, With Tunicamycin, 2 hours",5.00 U/mL
same,PH20 activity,"[1]; Tissue Culture Media, With Tunicamycin, 4 hours",8.80 U/mL
same,PH20 activity,"[1]; Tissue Culture Media, With Tunicamycin, 25 hours",5.80 U/mL
same,PH20 activity,"[1]; Tissue Culture Media, With Tunicamycin, 49 hours",6.80 U/mL
same,PH20 activity,"[1]; Tissue Culture Media, With Tunicamycin, 73 hours",7.80 U/mL
same,PH20 activity,"[1]; Tissue Culture Media, With Tunicamycin, 91 hours",7.50 U/mL
same,Viable Cells,"[1]; With Tunicamycin 5 μg/mL, 0 hours",1.04 ×10^6
same,Viable Cells,"[1]; With Tunicamycin 5 μg/mL, 1 hours",1.04 ×10^6
same,Viable Cells,"[1]; With Tunicamycin 5 μg/mL, 2 hours",1.04 ×10^6
same,Viable Cells,"[1]; With Tunicamycin 5 μg/mL, 4 hours",0.910 ×10^6
same,Viable Cells,"[1]; With Tunicamycin 5 μg/mL, 25 hours",1.08 ×10^6
same,Viable Cells,"[1]; With Tunicamycin 5 μg/mL, 49 hours",0.200 ×10^6
same,Viable Cells,"[1]; With Tunicamycin 5 μg/mL, 73 hours",0.080 ×10^6
same,Viable Cells,"[1]; With Tunicamycin 5 μg/mL, 91 hours",0 ×10^6
same,Accumulation of deglycosylated human PH20 inside the cell,"[1]; one hour of treatment, SDS-PAGE mobility shift to approximately 56 kDa in cell pellet fractions",accumulation of deglycosylated human PH20 hyaluronidase inside the cell
same,Effect on PH20 activity (in words),[1]; 5 μg/mL,inhibits PH20 activity
B1,pH 5.5 Activity,[2],2.313 Units/ml
same,pH 7.4 Activity,[2],3.96 Units/ml
B2,Expressed in Media,CHO-S cells,YES
same,pH 5.5 Activity,[2],2.925 Units/ml
same,pH 7.4 Activity,[2],3.204 Units/ml
